# From ChEMBL document CHEMBL5678818, “Discovery of potent SOS1 inhibitors that block RAS activation via disruption of the RAS-SOS1 interaction” (Proc Natl Acad Sci U S A, 2019)
# Columns and labels:
# [1] = molecular target: Calcium/calmodulin-dependent protein kinase type 1G (Homo sapiens) (UniProt Q96NX5); assay: Inhibition of CAMK1G (unknown origin) assessed as residual activity at 1000 nM by KINOMEscan analysis relative to control
# [2] = molecular target: Calcium/calmodulin-dependent protein kinase type II subunit beta (Homo sapiens) (UniProt Q13554); assay: Inhibition of CAMK2B (unknown origin) assessed as residual activity at 1000 nM by KINOMEscan analysis relative to control
# [3] = molecular target: Calcium/calmodulin-dependent protein kinase type II subunit delta (Homo sapiens) (UniProt Q13557); assay: Inhibition of CAMK2D (unknown origin) assessed as residual activity at 1000 nM by KINOMEscan analysis relative to control
# [4] = molecular target: Cyclin-dependent kinase 7 (Homo sapiens) (UniProt P50613); assay: Inhibition of CDK7 (unknown origin) assessed as residual activity at 1000 nM by KINOMEscan analysis relative to control
# [5] = molecular target: Dual specificity protein kinase CLK3 (Homo sapiens) (UniProt P49761); assay: Inhibition of CLK3 (unknown origin) assessed as residual activity at 1000 nM by KINOMEscan analysis relative to control
# [6] = tested on: Epidermal growth factor receptor (Homo sapiens), P00533 [G719S]; assay: Inhibition of EGFR G719S mutant (unknown origin) assessed as residual activity at 1000 nM by KINOMEscan analysis relative to control
# [7] = molecular target: Leucine-rich repeat serine/threonine-protein kinase 2 (Homo sapiens) (UniProt Q5S007); assay: Inhibition of LRRK2 (unknown origin) assessed as residual activity at 1000 nM by KINOMEscan analysis relative to control
# [8] = molecular target: Mitogen-activated protein kinase kinase kinase kinase 5 (Homo sapiens) (UniProt Q9Y4K4); assay: Inhibition of MAP4K5 (unknown origin) assessed as residual activity at 1000 nM by KINOMEscan analysis relative to control
# [9] = molecular target: Cyclin-dependent kinase 14 (Homo sapiens) (UniProt O94921); assay: Inhibition of PFTK1 (unknown origin) assessed as residual activity at 1000 nM by KINOMEscan analysis relative to control
# [10] = tested on: Phosphatidylinositol 4,5-bisphosphate 3-kinase catalytic subunit alpha isoform (Homo sapiens), P42336 [I800L]; assay: Inhibition of PIK3CA I800L mutant (unknown origin) assessed as residual activity at 1000 nM by KINOMEscan analysis relative to control
# [11] = molecular target: Serine/threonine-protein kinase N1 (Homo sapiens) (UniProt Q16512); assay: Inhibition of PKN1 (unknown origin) assessed as residual activity at 1000 nM by KINOMEscan analysis relative to control
# [12] = molecular target: Serine/threonine-protein kinase PLK1 (Homo sapiens) (UniProt P53350); assay: Inhibition of PLK1 (unknown origin) assessed as residual activity at 1000 nM by KINOMEscan analysis relative to control
# [13] = molecular target: Ribosomal protein S6 kinase alpha-1 (Homo sapiens) (UniProt Q15418); assay: Inhibition of C-terminal RSK1 kinetic domain 2 (unknown origin) assessed as residual activity at 1000 nM by KINOMEscan analysis relative to control
# [14] = molecular target: TGF-beta receptor type-2 (Homo sapiens) (UniProt P37173); assay: Inhibition of TGFBR2 (unknown origin) assessed as residual activity at 1000 nM by KINOMEscan analysis relative to control
# [15] = molecular target: Serine/threonine-protein kinase tousled-like 2 (Homo sapiens) (UniProt Q86UE8); assay: Inhibition of TLK2 (unknown origin) assessed as residual activity at 1000 nM by KINOMEscan analysis relative to control
# [16] = molecular target: Serine/threonine-protein kinase 25 (Homo sapiens) (UniProt O00506); assay: Inhibition of YSK1 (unknown origin) assessed as residual activity at 1000 nM by KINOMEscan analysis relative to control
# [17] = molecular target: T1, Son of sevenless homolog 1 (Homo sapiens) (UniProt Q07889); assay: Stabilization of N-terminal His10-tagged wild-type recombinant human SOS1 catalytic domain (564 to 1049 residues) expressed in Escherichia coli assessed as change in melting temperature at 100 uM with heating from 25 to 85 degreeC by thermal shift assay
# T1 sequence (whole entry): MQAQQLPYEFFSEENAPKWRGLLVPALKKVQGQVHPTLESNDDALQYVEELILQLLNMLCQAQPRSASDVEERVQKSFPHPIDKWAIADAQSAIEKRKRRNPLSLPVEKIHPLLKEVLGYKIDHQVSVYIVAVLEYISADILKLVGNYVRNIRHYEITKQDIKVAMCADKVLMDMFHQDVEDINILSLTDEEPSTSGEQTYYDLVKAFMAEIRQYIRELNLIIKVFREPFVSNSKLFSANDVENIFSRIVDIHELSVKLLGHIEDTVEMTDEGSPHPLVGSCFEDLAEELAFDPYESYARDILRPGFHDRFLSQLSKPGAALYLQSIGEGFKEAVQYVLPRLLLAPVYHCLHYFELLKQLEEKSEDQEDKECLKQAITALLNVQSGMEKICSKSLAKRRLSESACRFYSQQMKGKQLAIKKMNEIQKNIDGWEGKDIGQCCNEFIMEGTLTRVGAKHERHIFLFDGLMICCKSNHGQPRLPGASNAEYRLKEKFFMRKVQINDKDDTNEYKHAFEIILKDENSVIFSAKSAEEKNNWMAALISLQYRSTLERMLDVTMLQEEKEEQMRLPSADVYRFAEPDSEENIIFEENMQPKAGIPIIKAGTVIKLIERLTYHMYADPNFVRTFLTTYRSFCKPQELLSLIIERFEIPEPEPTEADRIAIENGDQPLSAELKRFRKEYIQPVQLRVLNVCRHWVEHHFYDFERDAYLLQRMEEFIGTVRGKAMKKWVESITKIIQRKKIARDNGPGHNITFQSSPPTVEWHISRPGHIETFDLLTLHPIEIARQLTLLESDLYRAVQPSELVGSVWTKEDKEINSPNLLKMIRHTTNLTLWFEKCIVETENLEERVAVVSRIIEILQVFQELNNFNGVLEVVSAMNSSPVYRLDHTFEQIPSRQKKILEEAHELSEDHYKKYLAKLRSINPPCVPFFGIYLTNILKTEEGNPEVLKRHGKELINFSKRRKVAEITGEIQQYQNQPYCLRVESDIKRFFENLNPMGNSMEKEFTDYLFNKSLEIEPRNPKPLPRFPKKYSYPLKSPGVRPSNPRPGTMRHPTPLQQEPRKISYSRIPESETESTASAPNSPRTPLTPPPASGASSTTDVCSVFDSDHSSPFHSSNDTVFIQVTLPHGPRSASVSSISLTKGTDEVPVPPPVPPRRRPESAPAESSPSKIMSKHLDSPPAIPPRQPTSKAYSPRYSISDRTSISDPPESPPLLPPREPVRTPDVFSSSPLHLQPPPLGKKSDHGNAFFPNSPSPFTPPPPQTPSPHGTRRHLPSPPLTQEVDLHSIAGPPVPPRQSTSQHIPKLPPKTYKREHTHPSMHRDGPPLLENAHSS
# Ribosomal protein S6 kinase alpha-1 (Homo sapiens), sequence (Q15418 whole entry, the tested form may be a part): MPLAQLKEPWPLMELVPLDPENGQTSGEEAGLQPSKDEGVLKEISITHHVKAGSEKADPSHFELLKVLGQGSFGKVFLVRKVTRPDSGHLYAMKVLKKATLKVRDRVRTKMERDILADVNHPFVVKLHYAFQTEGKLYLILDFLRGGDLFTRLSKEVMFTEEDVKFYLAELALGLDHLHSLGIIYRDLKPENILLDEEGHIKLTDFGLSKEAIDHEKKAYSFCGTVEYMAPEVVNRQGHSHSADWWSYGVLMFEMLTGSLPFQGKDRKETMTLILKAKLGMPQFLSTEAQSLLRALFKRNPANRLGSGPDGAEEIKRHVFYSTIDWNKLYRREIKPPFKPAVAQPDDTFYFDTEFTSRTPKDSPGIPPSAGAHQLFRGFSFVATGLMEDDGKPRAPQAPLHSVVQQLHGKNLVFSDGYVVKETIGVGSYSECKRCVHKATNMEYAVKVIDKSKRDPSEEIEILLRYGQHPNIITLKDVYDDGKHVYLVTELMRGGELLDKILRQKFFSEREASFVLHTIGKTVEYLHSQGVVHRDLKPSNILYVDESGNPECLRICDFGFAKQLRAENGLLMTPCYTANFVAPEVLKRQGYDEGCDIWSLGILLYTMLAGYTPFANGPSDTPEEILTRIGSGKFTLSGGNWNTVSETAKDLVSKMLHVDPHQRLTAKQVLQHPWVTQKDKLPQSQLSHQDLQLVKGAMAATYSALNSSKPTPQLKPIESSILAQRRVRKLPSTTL
# Dual specificity protein kinase CLK3 (Homo sapiens), sequence (P49761 whole entry, looked up): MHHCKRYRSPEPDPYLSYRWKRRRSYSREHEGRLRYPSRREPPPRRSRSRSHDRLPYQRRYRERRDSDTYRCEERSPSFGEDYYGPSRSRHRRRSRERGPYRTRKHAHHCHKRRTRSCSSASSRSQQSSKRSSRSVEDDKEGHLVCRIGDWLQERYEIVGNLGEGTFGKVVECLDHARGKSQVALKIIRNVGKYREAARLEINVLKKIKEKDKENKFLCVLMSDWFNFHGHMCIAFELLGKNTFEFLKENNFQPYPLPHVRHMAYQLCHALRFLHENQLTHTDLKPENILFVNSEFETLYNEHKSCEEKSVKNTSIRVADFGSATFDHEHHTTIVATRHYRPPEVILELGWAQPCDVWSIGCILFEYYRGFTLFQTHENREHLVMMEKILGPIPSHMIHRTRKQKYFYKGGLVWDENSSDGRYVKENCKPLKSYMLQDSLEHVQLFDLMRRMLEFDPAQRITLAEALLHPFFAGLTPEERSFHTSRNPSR
# Calcium/calmodulin-dependent protein kinase type II subunit beta (Homo sapiens), sequence (Q13554 whole entry): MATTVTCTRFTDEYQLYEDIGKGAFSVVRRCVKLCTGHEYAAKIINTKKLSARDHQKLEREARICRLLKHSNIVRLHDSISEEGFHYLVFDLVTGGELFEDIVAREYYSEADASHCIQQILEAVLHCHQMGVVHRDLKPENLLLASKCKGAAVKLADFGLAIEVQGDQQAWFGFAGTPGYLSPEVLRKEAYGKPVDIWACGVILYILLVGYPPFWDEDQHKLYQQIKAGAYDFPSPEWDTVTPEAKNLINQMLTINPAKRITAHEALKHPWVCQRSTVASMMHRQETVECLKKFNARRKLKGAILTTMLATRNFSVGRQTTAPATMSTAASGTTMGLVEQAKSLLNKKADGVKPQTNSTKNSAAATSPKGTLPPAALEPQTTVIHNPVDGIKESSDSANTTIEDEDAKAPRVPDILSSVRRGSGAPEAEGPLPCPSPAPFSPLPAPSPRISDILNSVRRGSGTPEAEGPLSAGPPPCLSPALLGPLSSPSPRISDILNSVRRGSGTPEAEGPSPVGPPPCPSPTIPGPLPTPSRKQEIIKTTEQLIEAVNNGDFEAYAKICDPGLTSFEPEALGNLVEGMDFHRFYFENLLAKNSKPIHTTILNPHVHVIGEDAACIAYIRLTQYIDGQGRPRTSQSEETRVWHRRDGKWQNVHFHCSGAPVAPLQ
# Calcium/calmodulin-dependent protein kinase type II subunit delta (Homo sapiens), sequence (Q13557 whole entry): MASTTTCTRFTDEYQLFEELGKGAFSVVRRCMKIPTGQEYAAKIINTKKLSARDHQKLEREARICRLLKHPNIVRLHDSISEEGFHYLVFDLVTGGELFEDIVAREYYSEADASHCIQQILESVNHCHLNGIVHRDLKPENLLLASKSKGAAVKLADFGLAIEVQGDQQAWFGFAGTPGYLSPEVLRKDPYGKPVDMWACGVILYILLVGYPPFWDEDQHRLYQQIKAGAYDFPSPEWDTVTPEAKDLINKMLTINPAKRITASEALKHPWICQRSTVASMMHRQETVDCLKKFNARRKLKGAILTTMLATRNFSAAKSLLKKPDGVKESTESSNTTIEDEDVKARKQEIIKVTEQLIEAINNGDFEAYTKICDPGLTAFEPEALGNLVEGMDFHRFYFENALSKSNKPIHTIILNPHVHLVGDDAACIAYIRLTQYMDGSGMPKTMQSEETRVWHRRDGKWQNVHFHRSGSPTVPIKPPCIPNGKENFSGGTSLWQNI
# Serine/threonine-protein kinase PLK1 (Homo sapiens), sequence (P53350 whole entry, the tested form may be a part): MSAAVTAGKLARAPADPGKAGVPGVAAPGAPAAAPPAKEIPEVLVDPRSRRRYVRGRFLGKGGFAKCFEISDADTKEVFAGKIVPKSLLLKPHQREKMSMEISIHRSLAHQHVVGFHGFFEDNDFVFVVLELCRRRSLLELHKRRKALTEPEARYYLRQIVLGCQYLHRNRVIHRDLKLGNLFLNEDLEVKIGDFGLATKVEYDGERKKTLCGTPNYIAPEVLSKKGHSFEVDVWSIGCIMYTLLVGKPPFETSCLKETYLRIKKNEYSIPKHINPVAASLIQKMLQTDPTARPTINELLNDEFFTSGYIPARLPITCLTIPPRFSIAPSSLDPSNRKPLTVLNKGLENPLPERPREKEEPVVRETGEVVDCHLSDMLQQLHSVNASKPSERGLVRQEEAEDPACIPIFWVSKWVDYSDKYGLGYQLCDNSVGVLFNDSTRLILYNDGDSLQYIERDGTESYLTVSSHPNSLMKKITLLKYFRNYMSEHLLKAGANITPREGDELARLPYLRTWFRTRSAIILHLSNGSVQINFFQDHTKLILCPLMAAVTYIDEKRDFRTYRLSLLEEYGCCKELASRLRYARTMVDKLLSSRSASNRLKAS
# Calcium/calmodulin-dependent protein kinase type 1G (Homo sapiens), sequence (Q96NX5 whole entry): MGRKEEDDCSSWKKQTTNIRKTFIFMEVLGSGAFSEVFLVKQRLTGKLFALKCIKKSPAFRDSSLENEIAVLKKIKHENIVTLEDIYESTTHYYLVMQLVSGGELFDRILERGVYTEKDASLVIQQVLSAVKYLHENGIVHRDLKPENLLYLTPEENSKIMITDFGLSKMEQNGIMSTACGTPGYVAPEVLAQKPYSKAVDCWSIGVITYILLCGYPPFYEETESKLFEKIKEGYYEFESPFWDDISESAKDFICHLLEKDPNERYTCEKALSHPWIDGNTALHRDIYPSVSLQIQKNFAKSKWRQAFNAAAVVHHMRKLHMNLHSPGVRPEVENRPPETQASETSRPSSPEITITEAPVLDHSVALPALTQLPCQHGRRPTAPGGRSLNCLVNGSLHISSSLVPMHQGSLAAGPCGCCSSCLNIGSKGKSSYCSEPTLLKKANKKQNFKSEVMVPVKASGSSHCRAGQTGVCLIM
# Phosphatidylinositol 4,5-bisphosphate 3-kinase catalytic subunit alpha isoform (Homo sapiens), P42336 [I800L], sequence (P42336 whole entry I800L, canonical isoform): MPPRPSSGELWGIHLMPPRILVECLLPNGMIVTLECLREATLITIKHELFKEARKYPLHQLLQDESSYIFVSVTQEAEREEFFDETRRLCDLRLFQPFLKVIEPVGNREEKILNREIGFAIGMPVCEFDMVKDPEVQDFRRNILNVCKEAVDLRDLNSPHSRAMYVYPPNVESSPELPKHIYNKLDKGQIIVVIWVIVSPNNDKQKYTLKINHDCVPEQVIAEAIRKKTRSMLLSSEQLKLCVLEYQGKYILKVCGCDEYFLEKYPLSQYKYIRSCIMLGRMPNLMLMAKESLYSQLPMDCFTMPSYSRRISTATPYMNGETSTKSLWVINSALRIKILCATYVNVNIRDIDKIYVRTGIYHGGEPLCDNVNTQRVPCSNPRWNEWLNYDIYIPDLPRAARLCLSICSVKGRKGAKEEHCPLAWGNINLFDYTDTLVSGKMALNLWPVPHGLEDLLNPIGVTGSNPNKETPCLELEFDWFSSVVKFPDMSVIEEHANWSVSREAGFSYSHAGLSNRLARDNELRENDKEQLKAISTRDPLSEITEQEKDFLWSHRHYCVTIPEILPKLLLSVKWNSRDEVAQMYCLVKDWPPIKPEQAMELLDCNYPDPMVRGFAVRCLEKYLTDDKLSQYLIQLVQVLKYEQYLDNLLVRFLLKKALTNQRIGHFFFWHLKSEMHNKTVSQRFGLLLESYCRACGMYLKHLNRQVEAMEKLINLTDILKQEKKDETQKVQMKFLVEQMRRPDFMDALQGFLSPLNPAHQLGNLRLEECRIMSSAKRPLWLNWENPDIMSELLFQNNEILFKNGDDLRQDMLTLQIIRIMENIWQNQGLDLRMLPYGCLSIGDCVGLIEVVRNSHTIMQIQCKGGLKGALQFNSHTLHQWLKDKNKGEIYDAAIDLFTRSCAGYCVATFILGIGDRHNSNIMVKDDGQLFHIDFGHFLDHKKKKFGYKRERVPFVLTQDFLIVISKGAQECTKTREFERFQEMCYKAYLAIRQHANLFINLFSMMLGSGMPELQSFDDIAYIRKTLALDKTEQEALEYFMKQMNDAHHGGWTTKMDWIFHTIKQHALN
# Serine/threonine-protein kinase 25 (Homo sapiens), sequence (O00506 whole entry, looked up, the tested form may be a part): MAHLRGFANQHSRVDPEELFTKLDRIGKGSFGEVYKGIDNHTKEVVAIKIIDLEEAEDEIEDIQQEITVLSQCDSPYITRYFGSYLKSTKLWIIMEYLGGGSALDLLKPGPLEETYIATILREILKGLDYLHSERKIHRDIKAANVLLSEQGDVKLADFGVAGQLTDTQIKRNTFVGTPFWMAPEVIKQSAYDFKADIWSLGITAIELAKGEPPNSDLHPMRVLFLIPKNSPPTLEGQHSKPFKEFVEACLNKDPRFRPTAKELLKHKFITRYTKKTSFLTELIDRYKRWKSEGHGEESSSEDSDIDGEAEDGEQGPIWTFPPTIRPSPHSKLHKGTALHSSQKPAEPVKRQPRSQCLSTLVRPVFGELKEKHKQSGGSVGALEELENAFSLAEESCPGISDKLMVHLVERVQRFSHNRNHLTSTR
Compound,Activity [1],Activity [2],Activity [3],Activity [4],Activity [5],Activity [6],Activity [7],Activity [8],Activity [9],Activity [10],Activity [11],Activity [12],Activity [13],Activity [14],Activity [15],Activity [16],ΔTm [17]
COc1cc2nc(C)nc(N[C@H](C)c3cccc(-c4cn[nH]c4)c3)c2cc1OC,100%,97%,100%,92%,81%,76%,94%,96%,93%,63%,100%,100%,99%,93%,83%,99%,–
CNCc1ccccc1-c1csc([C@@H](C)Nc2nc(C)nc3cc(OC)c(OC)cc23)c1 [BAY-293],–,–,–,–,–,–,–,–,–,–,–,–,–,–,–,–,3.17 °C
COc1cc2ncnc(N[C@H](C)c3cccc4ccccc34)c2cc1OC,98%,96%,100%,87%,100%,1.2%,99%,100%,100%,96%,97%,92%,100%,100%,77%,100%,2.5 °C
